Data reported in ChEMBL document CHEMBL2424609, “In silico accounting of novel pyridazine analogues as h-PTP 1B inhibitors: pharmacophore modelling, atom-based 3D QSAR and docking studies” (Med Chem Res, 2013).
One block for each molecule: values may come before it.

Molecular target: T1, Tyrosine-protein phosphatase non-receptor type 1 (Homo sapiens, UniProt P18031)
T1 sequence (P18031 whole entry): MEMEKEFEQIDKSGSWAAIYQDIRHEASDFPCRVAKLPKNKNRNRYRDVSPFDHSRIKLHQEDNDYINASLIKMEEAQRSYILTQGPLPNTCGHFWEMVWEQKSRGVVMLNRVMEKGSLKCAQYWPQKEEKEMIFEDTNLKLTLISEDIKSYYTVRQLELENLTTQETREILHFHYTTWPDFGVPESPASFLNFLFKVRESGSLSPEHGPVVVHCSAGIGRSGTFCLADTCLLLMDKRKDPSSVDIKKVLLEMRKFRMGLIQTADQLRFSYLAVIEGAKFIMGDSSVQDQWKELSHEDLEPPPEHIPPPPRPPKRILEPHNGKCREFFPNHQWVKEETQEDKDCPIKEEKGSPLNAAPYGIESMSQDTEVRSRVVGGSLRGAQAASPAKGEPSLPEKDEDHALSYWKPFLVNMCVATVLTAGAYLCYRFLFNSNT
Test: Non-competitive reversible inhibition of human PTP1B

SMILES: CC1(C)C=C2C(=NN(c3ccc(Oc4ccccc4)cc3)C(N)=C2C#N)CO1
- IC50 (read-out: IC50): 22.7 µM
- IC50 (read-out: pIC50 (converted)): 22.7 µM

SMILES: CCCCc1ccccc1N1N=C2COC(C)(C)C=C2C(C#N)=C1N
- IC50 (read-out: IC50): 1.5 µM
- IC50 (read-out: pIC50 (converted)): 1.5 µM

SMILES: CCc1cccc(N2N=C3COC(C)(C)C=C3C(C#N)=C2N)c1
- IC50 (read-out: IC50): 8.2 µM
- IC50 (read-out: pIC50 (converted)): 8.2 µM

SMILES: CCc1ccc(N2N=C3COC(C)(C)C=C3C(C#N)=C2N)cc1
- IC50 (read-out: IC50): 2.8 µM
- IC50 (read-out: pIC50 (converted)): 2.8 µM

SMILES: N#CC1=C(N)N(c2ccccc2)N=C2CSCC=C21
- IC50 (read-out: IC50): 1.1 µM
- IC50 (read-out: pIC50 (converted)): 1.1 µM

SMILES: CC1(C)C=C2C(=NN(c3ccccc3N3CCOCC3)C(N)=C2C#N)CO1
- IC50 (read-out: IC50): 2.9 µM
- IC50 (read-out: pIC50 (converted)): 2.9 µM

SMILES: CC1(C)C=C2C(=NN(c3cccc(C(F)(F)F)c3)C(N)=C2C#N)CO1
- IC50 (read-out: IC50): 2.8 µM
- IC50 (read-out: pIC50 (converted)): 2.8 µM

SMILES: CCc1ccccc1N1N=C2COC(C)(C)C=C2C(C#N)=C1N
- IC50 (read-out: IC50): 1.6 µM
- IC50 (read-out: pIC50 (converted)): 1.6 µM

SMILES: CC(C)c1cccc(N2N=C3COC(C)(C)C=C3C(C#N)=C2N)c1
- IC50 (read-out: IC50): 8.2 µM
- IC50 (read-out: pIC50 (converted)): 8.2 µM

SMILES: N#CC1=C(N)N(c2ccccc2)N=C2CCCC=C21
- IC50 (read-out: IC50): 10.4 µM
- IC50 (read-out: pIC50 (converted)): 10.4 µM

SMILES: N#CC1=C(N)N(c2ccccc2F)N=C2CSCC=C21
- IC50 (read-out: IC50): 4.4 µM
- IC50 (read-out: pIC50 (converted)): 4.4 µM

SMILES: CC(=O)Nc1cccc(N2N=C3COC(C)(C)C=C3C(C#N)=C2N)c1
- IC50 (read-out: IC50): 2.3 µM
- IC50 (read-out: pIC50 (converted)): 2.3 µM

SMILES: COc1ccccc1N1N=C2COC(C)(C)C=C2C(C#N)=C1N
- IC50 (read-out: IC50): 6.2 µM
- IC50 (read-out: pIC50 (converted)): 6.19 µM

SMILES: CC1(C)C=C2C(=NN(c3cccc(F)c3)C(N)=C2C#N)CO1
- IC50 (read-out: IC50): 4.5 µM
- IC50 (read-out: pIC50 (converted)): 4.5 µM

SMILES: CC1(C)C=C2C(=NN(c3ccccc3[N+](=O)[O-])C(N)=C2C#N)CO1
- IC50 (read-out: IC50): 17.5 µM
- IC50 (read-out: pIC50 (converted)): 17.5 µM

SMILES: COc1cccc(N2N=C3COC(C)(C)C=C3C(C#N)=C2N)c1
- IC50 (read-out: IC50): 3.6 µM
- IC50 (read-out: pIC50 (converted)): 3.6 µM

SMILES: CC1(C)C=C2C(=NN(c3ccccc3CO)C(N)=C2C#N)CO1
- IC50 (read-out: IC50): 11.1 µM
- IC50 (read-out: pIC50 (converted)): 11.1 µM

SMILES: CC1(C)C=C2C(=NN(c3ccccc3Oc3ccccc3)C(N)=C2C#N)CO1
- IC50 (read-out: IC50): 15.8 µM
- IC50 (read-out: pIC50 (converted)): 15.8 µM

Continued by falling IC50 (read-out: IC50), values first:

- IC50 (read-out: IC50): 7 µM
- IC50 (read-out: pIC50 (converted)): 7 µM
SMILES: CCCCc1ccc(N2N=C3COC(C)(C)C=C3C(C#N)=C2N)cc1

- IC50 (read-out: IC50): 6.1 µM
- IC50 (read-out: pIC50 (converted)): 6.1 µM
SMILES: CC(=O)Nc1ccc(N2N=C3COC(C)(C)C=C3C(C#N)=C2N)cc1

- IC50 (read-out: IC50): 5.7 µM
- IC50 (read-out: pIC50 (converted)): 5.7 µM
SMILES: CC1(C)C=C2C(=NN(c3ccccc3)C(N)=C2C#N)CO1

- IC50 (read-out: IC50): 5.6 µM
- IC50 (read-out: pIC50 (converted)): 5.6 µM
SMILES: CC(C)c1ccc(N2N=C3CSCC=C3C(C#N)=C2N)cc1

- IC50 (read-out: IC50): 4.9 µM
- IC50 (read-out: pIC50 (converted)): 4.9 µM
SMILES: CC1(C)C=C2C(=NN(c3ccc(F)cc3)C(N)=C2C#N)CO1

- IC50 (read-out: IC50): 3.9 µM
- IC50 (read-out: pIC50 (converted)): 3.9 µM
SMILES: CC1(C)C=C2C(=NN(c3ccccc3C(F)(F)F)C(N)=C2C#N)CO1

- IC50 (read-out: IC50): 3.9 µM
- IC50 (read-out: pIC50 (converted)): 3.9 µM
SMILES: CC1(C)C=C2C(=NN(c3cccc(Oc4ccccc4)c3)C(N)=C2C#N)CO1

- IC50 (read-out: IC50): 3.4 µM
- IC50 (read-out: pIC50 (converted)): 3.4 µM
SMILES: CCOc1ccccc1N1N=C2COC(C)(C)C=C2C(C#N)=C1N

- IC50 (read-out: IC50): 3.2 µM
- IC50 (read-out: pIC50 (converted)): 3.2 µM
SMILES: CCOc1ccc(N2N=C3COC(C)(C)C=C3C(C#N)=C2N)cc1

- IC50 (read-out: IC50): 2.9 µM
- IC50 (read-out: pIC50 (converted)): 2.9 µM
SMILES: CC1(C)C=C2C(=NN(c3ccc(CCO)cc3)C(N)=C2C#N)CO1

- IC50 (read-out: IC50): 2.4 µM
- IC50 (read-out: pIC50 (converted)): 2.4 µM
SMILES: CC1(C)C=C2C(=NN(c3ccccc3F)C(N)=C2C#N)CO1

- IC50 (read-out: IC50): 2.4 µM
- IC50 (read-out: pIC50 (converted)): 2.4 µM
SMILES: CC1(C)C=C2C(=NN(c3cccc(CO)c3)C(N)=C2C#N)CO1

- IC50 (read-out: IC50): 2.2 µM
- IC50 (read-out: pIC50 (converted)): 2.2 µM
SMILES: COc1ccc(N2N=C3COC(C)(C)C=C3C(C#N)=C2N)cc1

- IC50 (read-out: IC50): 2.1 µM
- IC50 (read-out: pIC50 (converted)): 2.1 µM
SMILES: COC(=O)c1cccc(N2N=C3COC(C)(C)C=C3C(C#N)=C2N)c1

- IC50 (read-out: IC50): 2 µM
- IC50 (read-out: pIC50 (converted)): 2 µM
SMILES: CC(C)c1ccccc1N1N=C2CSCC=C2C(C#N)=C1N

- IC50 (read-out: IC50): 2 µM
- IC50 (read-out: pIC50 (converted)): 2 µM
SMILES: N#CC1=C(N)N(c2ccc(F)cc2)N=C2CSCC=C21

- IC50 (read-out: IC50): 1.7 µM
- IC50 (read-out: pIC50 (converted)): 1.7 µM
SMILES: CC1(C)C=C2C(=NN(c3ccc(CO)cc3)C(N)=C2C#N)CO1

- IC50 (read-out: IC50): 1.3 µM
- IC50 (read-out: pIC50 (converted)): 1.3 µM
SMILES: COc1ccc(N2N=C3CSCC=C3C(C#N)=C2N)cc1

- IC50 (read-out: IC50): 0.35 µM
- IC50 (read-out: pIC50 (converted)): 0.35 µM
SMILES: N#CC1=C(N)N(c2ccccc2)N=C2COCC=C21
